Series [1] has as its system #50-1 (subgenomic replion) cells. As to the kind of experiment: Anti-HCV activity using subgenomic replicon cells (HCV genomic RNA, real-time RT-PCR). The following applies: for EC50: HCV genomic RNA level, 3 days; for anti-HCV activity (in words): Table 1. The class given is cell-based. The method, then: (§1) The 70% confluent #50-1 (subgenomic replion) cells or NNC #2 (full-length replicon) cells (Ishii et al., J. Virol., 2006, vol. 80, pp. 4510-4520) were dispersed in a culture bottle with the aid of trypsin, and the resulting dispersion was resuspended in a high-glucose Dulbecco's modified Eagle medium (DMEM) containing 10% FCS and 1 mg/ml G418 (Sigma) (see FIGS. 1 and 2). The cell suspension adjusted at 5×10^4 cells/ml with the use thereof was added to wells of a 96-well culture plate at 100 μl/well (the final cell density in each well: […]), and culture was conducted at 37° C. Supernatants of culture media were removed from wells of the plate on the following day, 200 μl each of the solutions of test compounds appropriately diluted with a G418-free culture solution were added, and culture was further continued. Samples were prepared from cells in each well 3 days later with the use of the TaqMan® Gene Expression Cell-to-CT® (Applied Biosystems). Reverse transcription was carried out in accordance with the protocols for the ABI 7500 PCR systems (Applied Biosystems) at 37° C. for 60 minutes, 95° C. for 5 minutes, and retained at 4° C. Real-time PCR was carried out in accordance with the protocols for the ABI 7500 real-time PCR systems (Applied Biosystems) at 50° C. for 2 minutes, 95° C. for 10 minutes, 40 cycles at 95° C. for 15 seconds, and 60° C. for 1 minute.
(§2) In accordance with the method mentioned above, the level of the HCV genomic RNA and, as the internal standard, the level of mRNA of glyceraldehyde-3-phosphate dehydrogenase (GAPDH) (a house keeping gene of the host cells) were assayed, and a percentage (%) relative to the level of RNA of a control group to which the test compound was not administered was determined. The dose-response relationship of the test compound was analyzed based on the measured level of the HCV genomic RNA to determine EC50, and the dose-response relationship of the test compound was analyzed based on the measured level of GAPDH RNA to determine CC50. The term “EC50” and “CC50” used herein refers to 50% effective concentration (μM) and 50% cytotoxic concentration (μM), respectively.
In general terms: In antiviral work, replicon cells carry a viral genome segment that copies itself.

The nature of series [2]: Cytotoxicity in subgenomic replicon cells (GAPDH mRNA, real-time RT-PCR). The settings on record: human, #50-1 (subgenomic HCV replicon) cells, GAPDH RNA level. It is filed as cell-based. The method, then: as §1, §2
Series [3] concerns #50-1 (subgenomic replion) cells. The series is described as above. The following applies: GAPDH RNA level, 3 days. It is filed as cell-based. As for the experimental part: as §1, §2
In series [4] the test system is NNC #2 (full-length replicon) cells. The series is described as follows: Cytotoxicity in full-length replicon cells (GAPDH mRNA, real-time RT-PCR). The following applies: GAPDH RNA level, 3 days. The class given is cell-based. The method, then: (§3) The 70% confluent #50-1 (subgenomic replion) cells or NNC #2 (full-length replicon) cells (Ishii et al., J. Virol., 2006, vol. 80, pp. 4510-4520) were dispersed in a culture bottle with the aid of trypsin, and the resulting dispersion was resuspended in a high-glucose Dulbecco's modified Eagle medium (DMEM) containing 10% FCS and 1 mg/ml G418 (Sigma) (see FIGS. 1 and 2). The cell suspension adjusted at 5×10^4 cells/ml with the use thereof was added to wells of a 96-well culture plate at 100 μl/well (the final cell density in each well: […]), and culture was conducted at 37° C. […]
(§4) In accordance with the method mentioned above, the level of the HCV genomic RNA and, as the internal standard, the level of mRNA of glyceraldehyde-3-phosphate dehydrogenase (GAPDH) (a house keeping gene of the host cells) were assayed, and a percentage (%) relative to the level of RNA of a control group to which the test compound was not administered was determined. The dose-response relationship of the test compound was analyzed based on the measured level of the HCV genomic RNA to determine EC50, and the dose-response relationship of the test compound was analyzed based on the measured level of GAPDH RNA to determine CC50. […]

Series [5] shares this test system. The series is described as follows: Anti-HCV activity using full-length replicon cells (HCV genomic RNA, real-time RT-PCR). The class given is cell-based. The following applies: for anti-HCV activity (in words): FIGS. 3 to 6; for EC50: HCV genomic RNA level, 3 days. The method, then:
as §1, §2

In series [6] the test system is Subgenomic HCV RNA replicon cells (LucNeo#2) having a luciferase gene. As to the kind of experiment: Anti-HCV activity using replicon cells (luciferase assay). The class given is cell-based. The following applies: Hepatitis C virus, 72 h. As for the experimental part: Subgenomic HCV RNA replicon cells (LucNeo#2, Goto et al., Biochem. Biophys. Res. Commun., 2006, vol. 343, pp. 879-884) having a luciferase gene were suspended in a Dulbecco's modified Eagle medium (DMEM) containing 10% FBS and 1 mg/ml G418 (Sigma). The cells were incubated for 24 hours and then cultured in G418-free fresh media each containing test compounds at various concentrations for 3 days. In order to perform luciferase assays, the cells were washed with PBS and treated with a lysate for 10 minutes with intermittent agitation. A cell lysate (25 μl) was transferred to a white microtiter plate. Luciferase assay reagents (100 μl, Promega, Tokyo) were added to each well and the luciferase activity was measured with a luminometer.
(§5) Based on the luciferase assay results, the HCV genomic RNA level was measured, and a percentage (%) relative to the level of RNA of a control group to which the test compound was not administered was determined. Based on the results of tetrazolium staining, cell survival rates (%) of the group to which the test compound had been administered and of a control group were determined. The dose-response relationship of the test compound was analyzed based on the results of quantitative luciferase assays to determine EC50(μM), and the dose-response relationship of the test compound was analyzed based on the results of tetrazolium staining to determine CC50.

Series [7] can be described thus: Cytotoxicity (cell survival rate) by tetrazolium staining in luciferase replicon cells. It is filed as cell-based. The following applies: human, subgenomic HCV RNA replicon cells (LucNeo#2), LucNeo#2 subgenomic replicon cells. As for the experimental part: A tetrazolium staining solution (10 μl, Seikagaku Corporation, Tokyo) was added to each well in order to examine cytotoxicity (a cell survival rate). After the cells were incubated for 1 hour, the absorbance at the characteristic absorption wavelength (450 nm) was measured with the use of a microplate reader.
as §5

Series [8] relates to HCV replicon cells. The following applies: inhibiting the replication of the HCV genome, Non-Patent Document 8; cited from earlier work.
The nature of series [9]: Cytotoxicity in full-length replicon cells (GAPDH mRNA, real-time RT-PCR). It is filed as cell-based. The settings on record: human, NNC #2 (full-length HCV replicon) cells, GAPDH RNA level. As for the experimental part:
as §3, §4

Bounds are passed on as bounds.

As usually defined, the EC50 is the concentration that produces a half-maximal response. One may read the CC50 as the concentration giving 50% cytotoxicity. A low value points to harm at low concentration. On to `CCCCn1c(=O)c2ccccc2c2cc3c(cc21)C(C)(C)CCC3(C)C` [MN256, 6-butyl-8,9,10,11-tetrahydro-8,8,11,11-tetramethylbenzo[2,3-b]phenanthridin-5(6H)-one], for which, in series [1] (Hepatitis C virus, 72 h), the EC50 was 5 µM. Further, in [2], the CC50 at 3 days amounted to 31.7 µM.

`CCCCn1c(=O)c2c3ccccc3ccc2c2ccccc21` [MN306, 6-butylbenzo[i]phenanthridin-5(6H)-one]: in [1] (Hepatitis C virus, 72 h), the EC50 came out at 29.9 µM. In addition, the “anti-HCV activity (in words)” value in [1] is on record as “very high degree of anti-HCV activity at non-cytotoxic concentrations”. This molecule yielded a CC50 at 3 days in series [2] greater than 40 µM.

In the case of `CCCCn1c(=O)c2ccccc2c2cc(C(C)(C)C)ccc21` [MN325, 5-butyl-2-tert-butylphenanthridin-6(5H)-one], it took 6.1 µM to reach a half-maximal effect in series [1] (Hepatitis C virus, 72 h) (EC50). In addition, the cytotoxic concentration (CC50) at 3 days in series [2] was determined as 34.4 µM.

Molecule `CCCCn1c(=O)c2ccc3ccccc3c2c2ccccc21` [MN314-A, 5-butylbenzo[k]phenanthridin-6(5H)-one] showed an EC50 in [1] (Hepatitis C virus, 72 h) greater than 31.4 µM. Also, it took 31.4 µM to reach half-maximal cytotoxicity in series [3] (CC50).

For the molecule `CCCCn1c(=O)c2ccccc2c2cc(C(O)(C(F)(F)F)C(F)(F)F)ccc21` [AA-24, 2-(1′,1′,1′,3′,3′,3′-hexafluoro-2′-hydroxypropan-2′-yl)-5-butyl-phenanthridin-6(5H)-one], the EC50 in series [1] came out at 4 µM; in [5] it was 2.8 µM. Further, the figures for the CC50 in [4] and in [3] were 11.9 µM and 20.5 µM, respectively. Further, the “anti-HCV activity (in words)” value in series [5] is “high degree of anti-HCV activity”.

`CCCCn1c(=O)c2ccccc2c2c(OC)c(C(O)(C(F)(F)F)C(F)(F)F)ccc21` [KZ34, 5-butyl-2-(1′,1′,1′,3′,3′,3′-hexafluoro-2′-hydroxypropan-2-yl)-1-methoxy-phenanthridin-6(5H)-one] had an EC50 in [6] of 7.2 µM. The molecule further displayed a CC50 at 3 days in [7] of 25.3 µM.

Consider `CCCCn1c(=O)c2cc3ccccc3cc2c2ccccc21` [MN314-B, 5-butylbenzo[j]phenanthridin-6(5H)-one], for which the “anti-HCV activity (in words)” value in series [1] was “very high degree of anti-HCV activity at non-cytotoxic concentrations”. In series [2], this molecule came in with a CC50 at 3 days of 33.5 µM. Moreover, the CC50 in series [3] is greater than 40 µM.

For the molecule `CCCCCCn1c(=O)c2ccccc2c2cc(C(O)(C(F)(F)F)C(F)(F)F)ccc21` [AA-25, 2-(1′,1′,1′,3′,3′,3′-hexafluoro-2′-hydroxypropan-2′-yl)-5-hexylphenanthridin-6(5H)-one], the “anti-HCV activity (in words)” value in [5] was “high degree of anti-HCV activity”.

The IC50 is the midpoint of a concentration-inhibition curve. Turning to `COc1cc(NC(=O)Nc2cccc(CNC(=O)O[C@H]3CCOC3)c2)ccc1-c1cnco1` [VX497], the IC50 in series [8] was 0.5 µM.

Molecule `CCCCn1c(=O)c2ccccc2c2c3ccccc3ccc21` [MN313-A, 6-butylbenzo[a]phenanthridin-5(6H)-one] displayed an EC50 in series [1] (Hepatitis C virus, 72 h) of 29.1 µM. Further, the “anti-HCV activity (in words)” value in series [1] is “very high degree of anti-HCV activity at non-cytotoxic concentrations”. This molecule also displayed a CC50 in series [3] of 44.5 µM.

`CCCCn1c(=O)c2ccccc2c2cc3ccccc3cc21` [MN313-B, 6-butylbenzo[b]phenanthridin-5(6H)-one] displayed an EC50 in series [1] (Hepatitis C virus, 72 h) of 3.2 µM. The “anti-HCV activity (in words)” value in [1] is listed as “very high degree of anti-HCV activity at non-cytotoxic concentrations”. In [2], this molecule came in with a half-maximal cytotoxic concentration (CC50) at 3 days of 6.3 µM.

In the case of `CCCCn1c(=O)c2ccccc2c2cc(C(C)C)ccc21` [PN-iPr, 5-butyl-2-isopropylphenanthridin-6(5H)-one], the EC50 was found to be 4 µM in [1] (Hepatitis C virus, 72 h) and 16.4 µM in [5] (Hepatitis C virus, NNC2, 72 h). For the same molecule, the values for the CC50 at 3 days in series [9] and in [2] were 27.7 µM and 20.5 µM, respectively.

Turning to `O=c1c2ccccc2c2cc(C(O)(C(F)(F)F)C(F)(F)F)ccc2n1Cc1ccccc1` [AA-04, 2-(1′,1′,1′,3′,3′,3′-hexafluoro-2′-hydroxypropan-2′-yl)-5-benzylphenanthridin-6(5H)-one], the “anti-HCV activity (in words)” value in series [5] is on record as “high degree of anti-HCV activity”.

With `O=c1c2ccccc2c2cc(C(O)(C(F)(F)F)C(F)(F)F)ccc2n1CC1CCCCC1` [AA-26, 2-(1′,1′,1′,3′,3′,3′-hexafluoro-2′-hydroxypropan-2′-yl)-5-cyclohexylmethyl-phenanthridin-6(5H)-one], the “anti-HCV activity (in words)” value in [5] is “high degree of anti-HCV activity”.

Molecule `CCCCn1c(=O)c2ccccc2c2ccc3ccccc3c21` [MN305, 5-butylbenzo[c]phenanthridin-6(5H)-one] registered an EC50 in [1] (Hepatitis C virus, 72 h) of 19.5 µM. For the same molecule, in [3], the CC50 was 24.3 µM.
